Patent publication US6743892B1, “Molecules that home to a selected organ in vivo” (La Jolla Cancer Research Foundation, priority 1995, dated 2004)
Bridge positions count the residues as written; N and C are the ends. Ends that are not written are not given here.

Experiments:
[1] = test system: brain; assay: Peptide competition of phage homing to brain; type: in vivo, mice; settings: 100 μg synthetic cyclic peptide injected with 1×10^8 TU phage
Description: In order to confirm the specificity of a peptide for directing homing to a selected organ, peptide competition experiments were performed. The cyclic peptide, CLSSRLDAC (SEQ ID NO: 3), which is one of the brain homing peptides (see Table 1) was synthesized (Immunodynamics; La Jolla Calif.) and purified by HPLC. The effect on the homing of phage expressing CLSSRLDAC (SEQ ID NO: 3), CENWWGDVC (SEQ ID NO: 2) or […] (SEQ ID NO: 16) to the brain was examined in order to determine whether co-administration of the synthetic peptide affected homing of the phage.
Phage expressing CLSSRLDAC (SEQ ID NO: 3), CENWWGDVC (SEQ ID NO: 2) or […] (SEQ ID NO: 16) were titrated to the same concentration and 1×10^8 TU was injected into mice alone, or with 100 μg purified synthetic cyclic CLSSRLDAC (SEQ ID NO: 3) peptide. The synthetic CLSSRLDAC (SEQ ID NO: 3) peptide inhibited the homing of phage expressing CLSSRLDAC (SEQ ID NO: 3) by about 60%.

[2] = test system: brain; assay: 125I-peptide/RBC complex homing to brain and kidney, with or without unlabeled peptide; type: in vivo, mouse; settings: 10 mM unlabeled peptide coadministered
Description: The synthetic cyclic CLSSRLDAC (SEQ ID NO: 3) peptide (1 mg) was labeled with iodine-125 using the Bolton and Hunter reagent (Amersham; Arlington Heights Ill.). Labeled peptide was purified by reverse phase HPLC on Sep-Pak™ cartridges (Waters, Millipore Corp.; Milford Pa.) and the ^125I-peptide (200 μg) was coupled to 1 ml glutaraldehyde-stabilized sheep RBC (Sigma Chemical Co.; St. Louis Mo.) according to the manufacturer's instructions.
After 2 min, each mouse was perfused through the heart with 50 ml DMEM and the brain and kidney were removed and assayed for radioactivity.
Approximately twice as much of the CLSSRLDAC/RBC complex (SEQ ID NO: 3) homed to brain than to kidney. […] Coadministration of unlabeled CVRLNSLAC (SEQ ID NO: 43) had no effect on selective homing of the complex to brain and no effect on the non-specific localization of the complex in the kidney.

[3] = test system: brain; assay: Brain homing activity (test not described); settings: in vivo

Row | Sequence | effect on homing to brain of CENWWGDVC phage [1] | inhibition of homing to brain of phage expressing CLSSRLDAC [1] | effect of coadministration on brain homing of the CLSSRLDAC/RBC complex [2] | effect of coadministration on localization of the CLSSRLDAC/RBC complex in the kidney [2] | brain homing activity [3]
1 | CLSSRLDAC (disulfide 1-9 (inferred)) | did not affect | about 60% | essentially completely inhibited | no effect | –
2 | CVRLNSLAC [reference compound] | – | – | no effect | no effect | no brain homing activity
